Legend:
chickweed [1] = assay: Test Example 4: herbicidal effect by soil treatment (Table 19, symbol P); assay type: in vivo, common chickweed (Stellaria media); settings: amount of applied herbicide 320 g/ha
Method in brief: (§1)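 In this soil treatment, the formulated compound reached the seeds only through the soil: seeds were buried about 1.5 cm deep in sterilized diluvial soil, then the diluted emulsion was sprayed over the surface. After three weeks at 25° C. to 30° C. in a greenhouse, effects were graded on criteria from an earlier test.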

barnyard grass [2] = assay: Test Example 5: herbicidal effect by foliage application, plastic box (Table 20, symbol H); assay type: in vivo, barnyard grass (Echinochloa crus-galli); settings: foliage application, 320 g/ha, evaluated three weeks after application
Method in brief: (§2)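 Plants were sown into sterilized diluvial soil under about 1.5 cm cover and kept in a greenhouse at 25° C. to 30° C. Fourteen days on, foliage received an even spray of the diluted emulsion. Herbicidal or crop effect was judged three weeks afterwards.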

lambsquarters [3] = assay: Test Example 4: herbicidal effect by soil treatment (Table 19, symbol O); assay type: in vivo, lambsquarters (Chenopodium album); settings: amount of applied herbicide 320 g/ha
Method in brief: as §1

green foxtail [4] = assay: Test Example 4: herbicidal effect by soil treatment (Table 19, symbol G); assay type: in vivo, green foxtail (Setaria viridis); settings: amount of applied herbicide 320 g/ha
Method in brief: as §1

wild oat [5] = assay: Test Example 5: herbicidal effect by foliage application, plastic box (Table 20, symbol I); assay type: in vivo, wild oat (Avena fatua); settings: foliage application, 320 g/ha, evaluated three weeks after application
Method in brief: as §2

rice flat sedge = assay: Test Example 3: herbicidal effect by foliage application, Wagner pot (Table 18, symbol E); assay type: in vivo, rice flat sedge (Cyperus iria); settings: amount of applied herbicide 320 g/ha
Method in brief: (§3)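 Plants were sown in alluvial soil held under 0.1–0.5 cm standing water and grown 14 days in a greenhouse at 25–30 °C. An emulsifiable formulation, water-diluted to the set dose, was then sprayed onto the foliage, and effects were scored three weeks later using previously defined criteria.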

windgrass [6] = assay: Test Example 5: herbicidal effect by foliage application, plastic box (Table 20, symbol L); assay type: in vivo, windgrass (Apera spica-venti); settings: foliage application, 320 g/ha, evaluated three weeks after application
Method in brief: as §2

southern crabgrass [7] = assay: Test Example 4: herbicidal effect by soil treatment (Table 19, symbol F); assay type: in vivo, southern crabgrass (Digitaria ciliaris); settings: amount of applied herbicide 320 g/ha
Method in brief: as §1

lambsquarters [8] = assay: Test Example 5: herbicidal effect by foliage application, plastic box (Table 20, symbol O); assay type: in vivo, lambsquarters (Chenopodium album); settings: foliage application, 320 g/ha, evaluated three weeks after application
Method in brief: as §2

barnyard grass [9] = assay: Test Example 4: herbicidal effect by soil treatment (Table 19, symbol H); assay type: in vivo, barnyard grass (Echinochloa crus-galli); settings: amount of applied herbicide 320 g/ha
Method in brief: as §1

Italian ryegrass [10] = assay: Test Example 4: herbicidal effect by soil treatment (Table 19, symbol K); assay type: in vivo, Italian ryegrass (Lolium multiflorum); settings: amount of applied herbicide 320 g/ha
Method in brief: as §1

velvetleaf [11] = assay: Test Example 4: herbicidal effect by soil treatment (Table 19, symbol M); assay type: in vivo, velvetleaf (Abutilon theophrasti); settings: amount of applied herbicide 320 g/ha
Method in brief: as §1

chickweed [12] = assay: Test Example 5: herbicidal effect by foliage application, plastic box (Table 20, symbol P); assay type: in vivo, common chickweed (Stellaria media); settings: foliage application, 320 g/ha, evaluated three weeks after application
Method in brief: as §2

redroot pigweed [13] = assay: Test Example 5: herbicidal effect by foliage application, plastic box (Table 20, symbol N); assay type: in vivo, redroot pigweed (Amaranthus retroflexus); settings: foliage application, 320 g/ha, evaluated three weeks after application
Method in brief: as §2

velvetleaf [14] = assay: Test Example 5: herbicidal effect by foliage application, plastic box (Table 20, symbol M); assay type: in vivo, velvetleaf (Abutilon theophrasti); settings: foliage application, 320 g/ha, evaluated three weeks after application
Method in brief: as §2

persian speedwell [15] = assay: Test Example 5: herbicidal effect by foliage application, plastic box (Table 20, symbol R); assay type: in vivo, Persian speedwell (Veronica persica); settings: foliage application, 320 g/ha, evaluated three weeks after application
Method in brief: as §2

Chinese sprangletop = assay: Test Example 3: herbicidal effect by foliage application, Wagner pot (Table 18, symbol D); assay type: in vivo, chinese sprangletop (Leptochloa chinensis); settings: amount of applied herbicide 320 g/ha
Method in brief: as §3

Italian ryegrass [16] = assay: Test Example 5: herbicidal effect by foliage application, plastic box (Table 20, symbol K); assay type: in vivo, Italian ryegrass (Lolium multiflorum); settings: foliage application, 320 g/ha, evaluated three weeks after application
Method in brief: as §2

wild oat [17] = assay: Test Example 4: herbicidal effect by soil treatment (Table 19, symbol I); assay type: in vivo, wild oat (Avena fatua); settings: amount of applied herbicide 320 g/ha
Method in brief: as §1

green foxtail [18] = assay: Test Example 5: herbicidal effect by foliage application, plastic box (Table 20, symbol G); assay type: in vivo, green foxtail (Setaria viridis); settings: foliage application, 320 g/ha, evaluated three weeks after application
Method in brief: as §2

southern crabgrass [19] = assay: Test Example 5: herbicidal effect by foliage application, plastic box (Table 20, symbol F); assay type: in vivo, southern crabgrass (Digitaria ciliaris); settings: foliage application, 320 g/ha, evaluated three weeks after application
Method in brief: as §2

blackgrass [20] = assay: Test Example 4: herbicidal effect by soil treatment (Table 19, symbol J); assay type: in vivo, blackgrass (Alopecurus myosuroides); settings: amount of applied herbicide 320 g/ha
Method in brief: as §1

blackgrass [21] = assay: Test Example 5: herbicidal effect by foliage application, plastic box (Table 20, symbol J); assay type: in vivo, blackgrass (Alopecurus myosuroides); settings: foliage application, 320 g/ha, evaluated three weeks after application
Method in brief: as §2

persian speedwell [22] = assay: Test Example 4: herbicidal effect by soil treatment (Table 19, symbol R); assay type: in vivo, Persian speedwell (Veronica persica); settings: amount of applied herbicide 320 g/ha
Excerpt: [Test Example 4] Herbicidal Effect Test by Soil Treatment
Sterilized diluvial soil was placed in a plastic box having a length of 21 cm, a width of 13 cm, and a depth of 7 cm. The seeds of each of southern crabgrass, green foxtail, barnyard grass, wild oat, blackgrass, Italian ryegrass, windgrass, velvetleaf, redroot pigweed, lambsquarters, chickweed, false cleavers, persian speedwell, corn, soybean, rice, wheat, beet, and rapeseed were sowed in a spot-like manner and covered with the soil having a thickness of about 1.5 cm. Subsequently, the emulsion agent of the compound of the present invention prepared according to Formulation Example 2 was diluted with water so as to achieve a predetermined herbicide amount, and the diluted emulsion agent was uniformly applied to the surface of the soil with a small-sized spray. The plastic box was placed in a greenhouse at 25° C. to 30° C. for growth of the plants. Three weeks after the herbicide application, the effect of the herbicide on each plant was evaluated according to the criteria of Test Example 1.

barnyard grass [23] = assay: Test Example 3: herbicidal effect by foliage application, Wagner pot (Table 18, symbol H); assay type: in vivo, barnyard grass (Echinochloa crus-galli); settings: amount of applied herbicide 320 g/ha
Method in brief: as §3

redroot pigweed [24] = assay: Test Example 4: herbicidal effect by soil treatment (Table 19, symbol N); assay type: in vivo, redroot pigweed (Amaranthus retroflexus); settings: amount of applied herbicide 320 g/ha
Method in brief: as §1

windgrass [25] = assay: Test Example 4: herbicidal effect by soil treatment (Table 19, symbol L); assay type: in vivo, windgrass (Apera spica-venti); settings: amount of applied herbicide 320 g/ha
Method in brief: as §1

Q: Which “P: chickweed, herbicidal effect rating” value (chickweed [1]) does the source give for `CCCC(=O)Oc1c(C)nn(C)c(=O)c1-c1c(-c2ccccc2)sc2ccc(C)cc12` [2-133] here?
A: 5 (Herbicidal rate of 90% or more (almost completely withered))

Q: And the “herbicidal effect on H: barnyard grass” value (barnyard grass [2])?
A: 0 (Herbicidal rate of 5% or less (almost no effect))

Q: What about the “O: lambsquarters, herbicidal effect rating” value (lambsquarters [3]) of the same compound?
A: 5 (Herbicidal rate of 90% or more (almost completely withered))

Q: And the “G: green foxtail, herbicidal effect rating” value (green foxtail [4])?
A: 0 (Herbicidal rate of 5% or less (almost no effect))

Q: And the “herbicidal effect on I: wild oat” value (wild oat [5])?
A: 0 (Herbicidal rate of 5% or less (almost no effect))

Q: What about the “herbicidal effect on E: rice flat sedge” value (rice flat sedge) of the same compound?
A: 5 (Herbicidal rate of 90% or more (almost completely withered))

Q: What about the “herbicidal effect on L: windgrass” value (windgrass [6]) of the same compound?
A: 0 (Herbicidal rate of 5% or less (almost no effect))

Q: What about the “F: southern crabgrass, herbicidal effect rating” value (southern crabgrass [7]) of the same compound?
A: 0 (Herbicidal rate of 5% or less (almost no effect))

Q: What about the “herbicidal effect on O: lambsquarters” value (lambsquarters [8]) of the same compound?
A: 4 (Herbicidal rate of 70% or more and less than 90%)

Q: What about the “H: barnyard grass, herbicidal effect rating” value (barnyard grass [9]) of the same compound?
A: 0 (Herbicidal rate of 5% or less (almost no effect))

Q: What about the “K: Italian ryegrass, herbicidal effect rating” value (Italian ryegrass [10]) of the same compound?
A: 0 (Herbicidal rate of 5% or less (almost no effect))

Q: And the “M: velvetleaf, herbicidal effect rating” value (velvetleaf [11])?
A: 0 (Herbicidal rate of 5% or less (almost no effect))

Q: What about the “herbicidal effect on P: chickweed” value (chickweed [12]) of the same compound?
A: 5 (Herbicidal rate of 90% or more (almost completely withered))

Q: What about the “herbicidal effect on N: redroot pigweed” value (redroot pigweed [13]) of the same compound?
A: 5 (Herbicidal rate of 90% or more (almost completely withered))

Q: And the “herbicidal effect on M: velvetleaf” value (velvetleaf [14])?
A: 5 (Herbicidal rate of 90% or more (almost completely withered))

Q: And the “herbicidal effect on R: persian speedwell” value (persian speedwell [15])?
A: 2 (Herbicidal rate of 20% or more and less than 40%)

Q: And the “herbicidal effect on D: Chinese sprangletop” value (Chinese sprangletop)?
A: 0 (Herbicidal rate of 5% or less (almost no effect))

Q: And the “herbicidal effect on K: Italian ryegrass” value (Italian ryegrass [16])?
A: 3 (Herbicidal rate of 40% or more and less than 70%)

Q: And the “I: wild oat, herbicidal effect rating” value (wild oat [17])?
A: 0 (Herbicidal rate of 5% or less (almost no effect))

Q: What about the “herbicidal effect on G: green foxtail” value (green foxtail [18]) of the same compound?
A: 2 (Herbicidal rate of 20% or more and less than 40%)

Q: And the “herbicidal effect on F: southern crabgrass” value (southern crabgrass [19])?
A: 0 (Herbicidal rate of 5% or less (almost no effect))

Q: And the “J: blackgrass, herbicidal effect rating” value (blackgrass [20])?
A: 0 (Herbicidal rate of 5% or less (almost no effect))

Q: What about the “herbicidal effect on J: blackgrass” value (blackgrass [21]) of the same compound?
A: 0 (Herbicidal rate of 5% or less (almost no effect))

Q: What about the “R: persian speedwell, herbicidal effect rating” value (persian speedwell [22]) of the same compound?
A: 0 (Herbicidal rate of 5% or less (almost no effect))

Q: What about the “herbicidal effect on H: barnyard grass” value (barnyard grass [23]) of the same compound?
A: 0 (Herbicidal rate of 5% or less (almost no effect))

Q: For `COc1cc(Cl)ccc1-c1sc2ccc(F)cc2c1-c1c(O)c(C)nn(C)c1=O` [2-368], which “herbicidal effect, P: chickweed” value (chickweed [1]) is on record?
A: 0 (Herbicidal rate of 5% or less (almost no effect))

Q: And the “herbicidal effect, N: redroot pigweed” value (redroot pigweed [24])?
A: 2 (Herbicidal rate of 20% or more and less than 40%)

Q: And the “herbicidal effect, O: lambsquarters” value (lambsquarters [3])?
A: 3 (Herbicidal rate of 40% or more and less than 70%)

Q: What about the “herbicidal effect, G: green foxtail” value (green foxtail [4]) of the same compound?
A: 0 (Herbicidal rate of 5% or less (almost no effect))

Q: What about the “herbicidal effect, L: windgrass” value (windgrass [25]) of the same compound?
A: 4 (Herbicidal rate of 70% or more and less than 90%)

Q: What about the “herbicidal effect on E: rice flat sedge” value (rice flat sedge) of the same compound?
A: 3 (Herbicidal rate of 40% or more and less than 70%)

Q: What about the “herbicidal effect, F: southern crabgrass” value (southern crabgrass [7]) of the same compound?
A: 0 (Herbicidal rate of 5% or less (almost no effect))

Q: What about the “herbicidal effect, H: barnyard grass” value (barnyard grass [9]) of the same compound?
A: 0 (Herbicidal rate of 5% or less (almost no effect))

Q: And the “herbicidal effect, K: Italian ryegrass” value (Italian ryegrass [10])?
A: 0 (Herbicidal rate of 5% or less (almost no effect))

Q: What about the “herbicidal effect, M: velvetleaf” value (velvetleaf [11]) of the same compound?
A: 0 (Herbicidal rate of 5% or less (almost no effect))

Q: And the “herbicidal effect on D: Chinese sprangletop” value (Chinese sprangletop)?
A: 3 (Herbicidal rate of 40% or more and less than 70%)

Q: What about the “herbicidal effect, I: wild oat” value (wild oat [17]) of the same compound?
A: 0 (Herbicidal rate of 5% or less (almost no effect))

Q: What about the “herbicidal effect, J: blackgrass” value (blackgrass [20]) of the same compound?
A: 0 (Herbicidal rate of 5% or less (almost no effect))

Q: And the “herbicidal effect, R: persian speedwell” value (persian speedwell [22])?
A: 0 (Herbicidal rate of 5% or less (almost no effect))

Q: And the “herbicidal effect on H: barnyard grass” value (barnyard grass [23])?
A: 4 (Herbicidal rate of 70% or more and less than 90%)

Reference: US20230085307A1, “PYRIDAZINONE COMPOUND AND HERBICIDE” (NISSAN CHEMICAL CORPORATION, priority 2019, published 2023)
